Assay results: patent US12187713B2, “Immunomodulators, compositions and methods thereof” (Betta Pharmaceuticals Co., Ltd, priority 2019, dated 2025)

Tests used:
[1] = Pharmacokinetic Assay, single oral dose 5 mg/kg (Table 12); assay type: in vivo; details: mouse, plasma concentration, C57 female mice, single oral dose 5 mg/kg
Summary of the method: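 Adult female C57 mice (n=3) got one intragastric dose of 5 mg/kg in 15% DMSO, 10% Kolliphor HS 15, 75% saline. Retro-orbital blood was taken at 30 min, 2 h and 4 h into K2-EDTA. Plasma levels were measured by LC-MS/MS.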

PD-1/PD-L1 = PD-1/PD-L1 (Homo sapiens (Human), UniProt Q9NZQ7); experiment: PD-1/PD-L1 Binding Assay (Alphascreen)
PD-1/PD-L1, sequence (Q9NZQ7 19-238): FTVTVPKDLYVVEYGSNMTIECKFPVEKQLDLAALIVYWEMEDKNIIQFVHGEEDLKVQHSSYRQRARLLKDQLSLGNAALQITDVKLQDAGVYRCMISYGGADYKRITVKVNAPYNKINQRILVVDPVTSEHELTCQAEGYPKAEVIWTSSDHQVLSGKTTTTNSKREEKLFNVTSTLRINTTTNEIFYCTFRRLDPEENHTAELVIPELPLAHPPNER
Summary of the method: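 PD-1/PD-L1 binding detected by anti-6×His acceptor and streptavidin donor beads after 120 min in the dark at 25 °C. Beforehand, the two proteins were incubated 15 min at 25 °C with inhibitor at 0.015–300 nM (1% DMSO). IC50 comes from a log concentration–response curve.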

concentration at 0.5 h [1] | concentration at 2 h [1] | concentration at 4 h [1] | IC50 (PD-1/PD-L1; range symbols) | IC50 (PD-1/PD-L1; numeric values) | SMILES
522 ng/mL | 1170 ng/mL | 965 ng/mL | 5 to 50 nM | – | Cc1c(-c2cnc(N3CCCC3)nc2)cccc1-c1cccc(-c2nc3cc(CN4CCC[C@H]4C(=O)O)c(OC(F)F)cc3o2)c1C [Example 283, ((6-(difluoromethoxy)-2-(2,2′-dimethyl-3′-(2-(pyrrolidin-1-yl)pyrimidin-5-yl)-[1,1′-biphenyl]-3-yl)benzo[d]oxazol-5-yl)methyl)-L-proline]
39.1 ng/mL | 80 ng/mL | 41.8 ng/mL | 0.1 to 5 nM | – | COc1nc(-c2cccc(-c3cccc(-c4nc5cc(CN6CCC[C@H]6C(=O)O)c(OC(F)F)cc5o4)c3C)c2C)cnc1CN1CCCC1 [Example 285, ((6-(difluoromethoxy)-2-(3′-(6-methoxy-5-(pyrrolidin-1-ylmethyl)pyrazin-2-yl)-2,2′-dimethyl-[1,1′-biphenyl]-3-yl)benzo[d]oxazol-5-yl)methyl)-L-proline]
20.5 ng/mL | 73.8 ng/mL | 52.2 ng/mL | 0.1 to 5 nM | – | COc1nc(-c2cccc(-c3cccc(-c4nc5cc(CN6CCC[C@H]6C(=O)O)c(OC(F)F)cc5o4)c3C)c2C)cnc1CN1CC[C@@H](C)C1 [Example 286, ((6-(difluoromethoxy)-2-(3′-(6-methoxy-5-(((R)-3-methylpyrrolidin-1-yl)methyl)pyrazin-2-yl)-2,2′-dimethyl-[1,1′-biphenyl]-3-yl)benzo[d]oxazol-5-yl)methyl)-L-proline]
8.36 ng/mL | 25.4 ng/mL | 9.68 ng/mL | – | 1.5 nM | Cc1c(-c2ccc3c(c2)CCNC3)cccc1-c1cccc(-c2nc3cc(CN4CCC[C@H]4C(=O)O)c(OC(F)F)cc3o2)c1C [Example 288, ((6-(difluoromethoxy)-2-(2,2′-dimethyl-3′-(1,2,3,4-tetrahydroisoquinolin-6-yl)-[1,1′-biphenyl]-3-yl)benzo[d]oxazol-5-yl)methyl)-L-proline]
6.68 ng/mL | 10.8 ng/mL | 3.57 ng/mL | – | 11 nM | Cc1c(-c2ccc3[nH]c(N)nc3c2)cccc1-c1cccc(-c2nc3cc(CN4CCC[C@H]4C(=O)O)c(OC(F)F)cc3o2)c1C [Example 293, ((2-(3′-(2-amino-1H-benzo[d]imidazol-5-yl)-2,2′-dimethyl-[1,1′-biphenyl]-3-yl)-6-(difluoromethoxy)benzo[d]oxazol-5-yl)methyl)-L-proline]
80.4 ng/mL | 193 ng/mL | 186 ng/mL | 0.1 to 5 nM | – | COc1nc(-c2cccc(-c3cccc(-c4nc5cc(CN6CCC[C@H]6C(=O)O)c(OC(F)F)cc5o4)c3C)c2C)ccc1CN1CCC(C)(C)C1 [Example 294, ((6-(difluoromethoxy)-2-(3′-(5-((3,3-dimethylpyrrolidin-1-yl)methyl)-6-methoxypyridin-2-yl)-2,2′-dimethyl-[1,1′-biphenyl]-3-yl)benzo[d]oxazol-5-yl)methyl)-L-proline]
27.9 ng/mL | 212 ng/mL | 89.2 ng/mL | > 50 nM | – | Cc1c(-c2nc3cc(CN4CCC[C@H]4C(=O)O)c(OC(F)F)cc3o2)cccc1-c1cccc(-c2nc3cc(CN4CCCC4)c(F)c(F)c3n2CC(F)(F)F)c1C [Example 299, ((2-(3′-(6,7-difluoro-5-(pyrrolidin-1-ylmethyl)-1-(2,2,2-trifluoroethyl)-1H-benzo[d]imidazol-2-yl)-2,2′-dimethyl-[1,1′-biphenyl]-3-yl)-6-(difluoromethoxy)benzo[d]oxazol-5-yl)methyl)-L-proline]
131 ng/mL | 150 ng/mL | 74.2 ng/mL | – | 27 nM | Cc1nc(-c2cccc(-c3cccc(-c4nc5cc(CN6CCC[C@H]6C(=O)O)c(OC(F)F)cc5o4)c3C)c2C)oc1CN1CCCC1 [Example 304, ((6-(difluoromethoxy)-2-(2,2′-dimethyl-3′-(4-methyl-5-(pyrrolidin-1-ylmethyl)oxazol-2-yl)-[1,1′-biphenyl]-3-yl)benzo[d]oxazol-5-yl)methyl)-L-proline]
